Calls of active or inactive are those of the source.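 Rule for the calls: active = compounds giving half or more protection of infected cells from virus-caused growth loss, again on retest; inactive = the rest.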
Tested on: CEM cells HIV-1 protection, formazan growth assay
Assay: NCI AIDS Antiviral Assay
Settings: for IC50: measured here: growth of uninfected CEM cells
In short: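 Soluble formazan readout of cell growth; CEM cells ± HIV-1; 5 drug concs. ≥50% protection → retest; ≥50% again = moderately active; reproducible 100% = confirmed active.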

Row | Structure (SMILES) | outcome | EC50 [µM] | IC50 [µM]
1 | CCCCCCCCCCCCCCCCCCOCC(CCP(=O)(CP(=O)(O)O)Oc1ccccc1)OCCCCCCCCCCCCCCCCCC (stereo unspecified) | inactive | – | –
2 | O=C(CCC(=O)Nc1ccc(Cl)c(Cl)c1)CC(=O)c1ccc2ccccc2c1 | inactive | – | –
3 | CN1CCN(C(=S)N(C(=O)c2ccc(Cl)cc2)C2CCCCC2)CC1 | – | > 95.5 | 45.7
4 | COc1ccc(OC)c(NC(=S)N/N=C/c2cccc3ccccc23)c1 | – | > 200 | 1.05
5 | COC(=O)C1CC(Sc2ccccc2)C(=O)C(C(=O)OC)C1 (stereo unspecified) | – | > 112 | 77.6
6 | CCN1CC2(C)CCC(OC)C34C5CC6CCC(O)(C5C(=O)O6)C(C(O)C23)C14 (stereo unspecified) | inactive | – | –
7 | O=c1[nH]nc(Cc2ccc(Cl)cc2)n1/N=C\CC/C=N\n1c(Cc2ccc(Cl)cc2)n[nH]c1=O | – | > 200 | 148
8 | COc1cc2c(cc1O)C1CC(CC3CCCCN31)OC(=O)/C=C\c1ccc(O)c-2c1 (stereo unspecified) | – | > 200 | 45.7
9 | CC(=O)OC12c3ccccc3C1CCCCCC21OCCCO1 (stereo unspecified) | – | > 200 | > 200
10 | Cc1sc(C)c2c1C(=O)CC2N (stereo unspecified) | – | > 200 | 9.77
11 | CC1=NCCc2c1[nH]c1cc(O)ccc21 | – | > 398 | > 100
12 | CC(=O)OC1CC2C(C)(CCC3C2(C)CCC2(C)C4CC(C)(C)CCC4(C)CCC32C)C1C (stereo unspecified) | – | > 200 | 145
13 | O=C1C2C3C=CC(O3)C2C(=O)N1/N=C/c1ccc2c(c1)OCO2 (stereo unspecified) | – | > 200 | > 200
14 | CS(=O)(=O)O/N=c1/cc(-c2ccccc2)oc2ccccc12 | – | > 200 | > 200
15 | O=Cc1ccccc1OCCC[P+](c1ccccc1)(c1ccccc1)c1ccccc1 | – | > 200 | 2.51
16 | CCOC(=O)CN1C(=O)c2cc([N+](=O)[O-])cc3cc([N+](=O)[O-])cc(c23)C1=O | inactive | – | –
17 | O[C@]12C=C[C@H](CCCC1)O2 | – | > 200 | 50.1
18 | N#C/C(=C\c1cccc(OCc2ccccc2)c1)c1ccc([N+](=O)[O-])cc1 | – | > 200 | 151
19 | CCCCCC(/C=C/[C@@H]1CC(=O)C[C@H]1O[Si](C)(C)C(C)(C)C)OCOCCOC (stereo partly specified) | – | 5.75 | 7.59
20 | Nc1ccc(C(=O)NN2C(=O)C(Cl)C2c2cccc([N+](=O)[O-])c2)cc1 (stereo unspecified) | – | > 200 | 10.2
21 | O=C(O)c1n[nH][nH]c1=S | – | 126 | > 200

Row | Structure (SMILES) | outcome | EC50 [µM] | IC50 [µM]
22 | O=c1oc2ccccc2c(O)c1C(c1cnc2ccccc2c1)c1c(O)c2ccccc2oc1=O | inactive | – | –
23 | C=C1SC(=Nc2cccc(OC)c2)N(c2nc(Cl)nc(Cl)n2)C12CCCCC2 | – | > 155 | 52.5
24 | C=C1CN(C2=NCCO2)C1 | – | > 200 | > 200
25 | O=c1[nH]c(C2CCCCC2)nc2cc(Cl)ccc12 | inactive | – | –
26 | CCOC1(c2ccccc2)OC(=O)c2ccccc21 (stereo unspecified) | inactive | – | –
27 | CN(COC(=O)c1ccccc1)c1nc(N(C)COC(=O)c2ccccc2)nc(N(C)COC(=O)c2ccccc2)n1 | inactive | – | –
28 | COc1ccc(C2=NN(C(=O)COc3ccc(Cl)cc3)C(O)(c3ccc(Cl)cc3)C2)cc1 (stereo unspecified) | – | > 11 | > 11
29 | O=NN1C(c2ccccc2)C2CCCC(C2=O)C1c1ccccc1 (stereo unspecified) | – | > 58.9 | > 58.9
30 | COc1c2occc2c(OC)c2c(=O)c(S(=O)(=O)NC(=O)Nc3ccc(Cl)cc3)coc12 | – | > 200 | 97.7
31 | COC1CCN(N(C)C)O1 (stereo unspecified) | – | > 200 | > 200
32 | COC(=O)c1ccccc1N=Cc1ccc(N(CCC#N)S(=O)(=O)c2ccccc2)cc1 | – | > 562 | 479
33 | Cc1noc(NS(=O)(=O)c2ccc(Nc3nc(CC(=O)Nc4ccccc4)cs3)cc2)c1C | – | > 200 | 28.2
34 | Nc1c(-c2nc3ccccc3[nH]2)sc(=S)n1-c1ccc(Cl)cc1 | – | > 14.5 | > 14.5
35 | CC(=O)N1CCC23c4ccccc4N(C)C2CC(=O)CC13 (stereo unspecified) | – | > 871 | > 871
36 | CO[C@@H]1[C@@H](OC2OC(C)C(OC3CC(C)(O)C(OC(=O)CC(C)C)C(C)O3)C(N(C)C)C2O)[C@@H](CC=O)C[C@@H](C)C(=O)/C=C/C2O[C@H]2C[C@@H](C)OC(=O)C[C@H]1OC(C)=O (stereo partly specified) | – | > 148 | 7.76
37 | COc1cc(C)c2c(=O)c3c(oc2c1)C(=O)c1c(OC)c(OC)cc(OC)c1C3=O | inactive | – | –
38 | CC1OC(OC2C(Oc3ccc4c(=O)c(-c5ccc(O)c(O)c5O)coc4c3)OC(CO)C(O)C2O)C(O)C(O)C1O (stereo unspecified) | – | > 200 | 67.6
39 | O=NC1C(=O)NC(=O)NC1=O | – | > 200 | > 200
40 | CCOC(=O)NN(C(=O)OCC)c1ccc(N=Nc2ccc(OC)cc2)n1C | – | > 200 | 26.9
41 | O=C1NC(N/N=C\c2ccccc2)=N/C1=C/c1ccc(Cl)cc1 | inactive | – | –
42 | Cc1cn(C2CC(O)C(COC(=O)CCCCCCCCCCN=[N+]=[N-])O2)c(=O)[nH]c1=O (stereo unspecified) | – | > 123 | 24

Row | Structure (SMILES) | outcome | EC50 [µM] | IC50 [µM]
43 | O=c1[nH][nH]c(=O)c2c1ccc1oc3ccccc3c12 | – | > 200 | > 200
44 | CC1(C)CNC[C@@]2(C)OCCO[C@@]3(C)CNCC(C)(C)[N-]C(=O)[C@@](C)(CNCC(C)(C)[N-]C3=O)OCCO[C@](C)(CNCC(C)(C)[N-]C2=O)C(=O)[N-]1.[Cu+2].[Cu+2] | – | > 200 | > 200
45 | CCOC(=O)C1=CCOc2cc(N(C)C)ccc21 | – | > 200 | 105
46 | C=C1CC[C@@H](Br)C(C)(C)[C@]12CCC(C)(O)C(Cl)C2 (stereo partly specified) | – | > 77.6 | > 77.6
47 | Cc1noc2c1NC(=O)OCC2 | – | 11 | 490
48 | N#Cc1c(C(N)=O)ncn1Cc1ccccc1 | inactive | – | –
49 | CC(C)(C)C1CCC2c3c([nH]c4ccccc34)C3C(=O)N(c4cccc(Cl)c4)C(=O)C3C2C1 (stereo unspecified) | – | > 200 | 11
50 | CC(C)(C)C(=O)[O-].N.N.N.N.N.[Co+3].[O-][Cl+3]([O-])([O-])[O-] | inactive | – | –
51 | O=Cc1cn(CCCCCCCCn2cc(C=O)c3ccccc32)c2ccccc12 | – | > 200 | > 200
52 | COc1c(O)c2c(=O)cc(OC)c3c4c(OC)cc(=O)c5c(O)c(OC)c6c(c(c1C(C(C)=O)C6C(C)O)c23)c54 (stereo unspecified) | – | > 20 | 0.316
53 | COc1ccc(CCN2C(=O)C(=O)c3ccccc32)cc1OC | – | > 83.2 | 47.9
54 | Fc1cc(-c2ncc(Cl)cc2Cl)c2cccccc1-2 | – | > 100 | > 100
55 | BrCc1ccc(CBr)c2c1-c1c(CBr)ccc3ccc(CBr)c-2c13 | – | > 200 | 22.9
56 | COc1cc(C(O)c2ccc3c(c2)OCO3)cc(OC)c1OC (stereo unspecified) | – | > 200 | 87.1
57 | COc1ccc(OC)c(NC(=O)C(=O)NNC(=O)c2sc(NNC(C)=O)nc2C)c1 | inactive | – | –
58 | COP(=O)(OC)OC1C(=O)NC(=O)NC1=O | – | > 200 | > 200
59 | CC(C)(O)CCCC1CCC2C3CCC4CCCCC4(C)C3CCC2(C)C1O (stereo unspecified) | – | > 200 | 9.33
60 | COc1cccc(/C(Cl)=C(\C=O)c2cccc(OC)c2)c1 | – | > 17.4 | 9.12
61 | C[Si](C)(/C(=C/COCc1ccccc1)CCOC1CCCCO1)c1ccccc1 (stereo unspecified) | – | > 9.12 | > 9.12
62 | COc1ccc(N=C2C(=Nc3ccc(OC)cc3)N(S(=O)(=O)c3ccccc3)C(=S)N2c2ccc(OC)cc2)cc1 | – | > 200 | > 200

From PubChem BioAssay AID179 (DTP/NCI, 2004)
